# Literature values in patent US4960900A, “Oxyimino derivatives of thiazole, method of preparation and use in therapy” (priority 1987, dated 1990).
# Tests used:
# [1] = prior art documents; cited from earlier work
# [2] = prior art documents; cited from earlier work; remark: listed apart in the source
structure (smiles),measurement,setting,value
Cc1ncsc1C(C)(C)O [2-(4-methylthiazol-5-yl)propan-2-ol],anticonvulsant properties (prior art),[1],has anticonvulsant and antihypoxic properties
same,antihypoxic properties (prior art),[2],has anticonvulsant and antihypoxic properties
